From ChEMBL document CHEMBL4765228, “Indole-like Trk receptor antagonists” (Eur J Med Chem, 2016)

Legend:
[1] = target: Myosin light chain kinase, smooth muscle (Homo sapiens) (UniProt Q15746); experiment: Inhibition of human MYLK assessed as residual activity at 0.1 uM relative to control
[2] = target: RAC-alpha serine/threonine-protein kinase (Homo sapiens) (UniProt P31749); experiment: Inhibition of human AKT1 (104 to 408 residues) assessed as residual activity at 0.1 uM relative to control
[3] = target: RAC-alpha serine/threonine-protein kinase (Homo sapiens) (UniProt P31749); experiment: Inhibition of human AKT1 (104 to 408 residues) assessed as residual activity at 1 uM relative to control
[4] = target: 5'-AMP-activated protein kinase catalytic subunit alpha-1 (Homo sapiens) (UniProt Q13131); experiment: Inhibition of human AMPKalpha1 (1 to 550 residues assessed as residual activity at 0.1 uM relative to control
[5] = target: Aurora kinase B (Homo sapiens) (UniProt Q96GD4); experiment: Inhibition of human Aurora-B assessed as residual activity at 0.1 uM relative to control
[6] = target: Tyrosine-protein kinase BTK (Homo sapiens) (UniProt Q06187); experiment: Inhibition of human BTK assessed as residual activity at 0.1 uM relative to control
[7] = target: Calcium/calmodulin-dependent protein kinase type 1D (Homo sapiens) (UniProt Q8IU85); experiment: Inhibition of human CAMK1D assessed as residual activity at 1 uM relative to control
[8] = target: Calcium/calmodulin-dependent protein kinase kinase 2 (Homo sapiens) (UniProt Q96RR4); experiment: Inhibition of human CAMKK2 assessed as residual activity at 1 uM relative to control
[9] = target: Serine/threonine-protein kinase Chk2 (Homo sapiens) (UniProt O96017); experiment: Inhibition of human CHK2 assessed as residual activity at 1 uM relative to control
[10] = target: Glycogen synthase kinase-3 beta (Homo sapiens) (UniProt P49841); experiment: Inhibition of human GSK3-beta assessed as residual activity at 0.1 uM relative to control
[11] = target: Homeodomain-interacting protein kinase 2 (Homo sapiens) (UniProt Q9H2X6); experiment: Inhibition of human HIPK2 assessed as residual activity at 1 uM relative to control
[12] = target: Insulin-like growth factor 1 receptor (Homo sapiens) (UniProt P08069); experiment: Inhibition of human IGF1R assessed as residual activity at 1 uM relative to control
Sequence of Insulin-like growth factor 1 receptor (Homo sapiens) (P08069 31-736 limits assumed): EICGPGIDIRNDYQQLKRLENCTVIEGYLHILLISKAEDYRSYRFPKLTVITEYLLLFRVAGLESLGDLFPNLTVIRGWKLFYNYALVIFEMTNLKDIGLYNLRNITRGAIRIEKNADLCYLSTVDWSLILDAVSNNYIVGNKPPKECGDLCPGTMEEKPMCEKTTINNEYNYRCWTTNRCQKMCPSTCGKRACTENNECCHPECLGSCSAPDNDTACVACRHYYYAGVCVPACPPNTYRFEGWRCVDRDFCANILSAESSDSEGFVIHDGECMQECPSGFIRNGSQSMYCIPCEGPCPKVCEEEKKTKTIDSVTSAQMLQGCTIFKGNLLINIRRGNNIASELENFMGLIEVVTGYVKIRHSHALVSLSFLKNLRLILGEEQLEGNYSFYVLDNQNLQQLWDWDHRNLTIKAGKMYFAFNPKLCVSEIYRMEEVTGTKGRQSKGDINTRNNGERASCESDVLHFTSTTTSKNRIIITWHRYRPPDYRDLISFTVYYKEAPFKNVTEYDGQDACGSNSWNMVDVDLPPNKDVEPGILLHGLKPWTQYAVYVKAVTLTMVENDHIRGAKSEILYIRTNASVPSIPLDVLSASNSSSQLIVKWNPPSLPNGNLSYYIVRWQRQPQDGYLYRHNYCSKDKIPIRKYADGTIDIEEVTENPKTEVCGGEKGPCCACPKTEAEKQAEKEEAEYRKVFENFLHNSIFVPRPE
Sequence of Insulin-like growth factor 1 receptor (Homo sapiens) (P08069 741-1367 limits assumed): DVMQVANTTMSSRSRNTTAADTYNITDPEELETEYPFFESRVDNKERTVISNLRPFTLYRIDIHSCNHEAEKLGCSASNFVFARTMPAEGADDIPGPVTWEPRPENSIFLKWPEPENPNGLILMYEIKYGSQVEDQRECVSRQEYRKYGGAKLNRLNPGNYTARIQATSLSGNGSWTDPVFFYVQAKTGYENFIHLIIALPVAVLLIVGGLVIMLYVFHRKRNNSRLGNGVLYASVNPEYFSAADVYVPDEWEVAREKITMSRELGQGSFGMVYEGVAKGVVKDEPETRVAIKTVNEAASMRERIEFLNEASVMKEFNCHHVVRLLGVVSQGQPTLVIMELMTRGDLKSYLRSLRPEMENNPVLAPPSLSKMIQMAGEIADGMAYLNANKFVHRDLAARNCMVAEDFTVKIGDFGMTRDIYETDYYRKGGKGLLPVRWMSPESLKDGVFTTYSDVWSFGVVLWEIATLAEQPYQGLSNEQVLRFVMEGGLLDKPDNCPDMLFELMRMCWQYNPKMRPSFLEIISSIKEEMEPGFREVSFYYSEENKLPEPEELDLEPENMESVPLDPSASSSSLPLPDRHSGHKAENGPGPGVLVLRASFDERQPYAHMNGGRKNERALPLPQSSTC

[13] = target: Mitogen-activated protein kinase kinase kinase 11 (Homo sapiens) (UniProt Q16584); experiment: Inhibition of human MAP3K11 assessed as residual activity at 1 uM relative to control
[14] = target: Dual specificity mitogen-activated protein kinase kinase 1 (Homo sapiens) (UniProt Q02750); experiment: Inhibition of human wild type MEK1 assessed as residual activity at 1 uM relative to control
Sequence of Dual specificity mitogen-activated protein kinase kinase 1 (Homo sapiens) (Q02750 whole entry): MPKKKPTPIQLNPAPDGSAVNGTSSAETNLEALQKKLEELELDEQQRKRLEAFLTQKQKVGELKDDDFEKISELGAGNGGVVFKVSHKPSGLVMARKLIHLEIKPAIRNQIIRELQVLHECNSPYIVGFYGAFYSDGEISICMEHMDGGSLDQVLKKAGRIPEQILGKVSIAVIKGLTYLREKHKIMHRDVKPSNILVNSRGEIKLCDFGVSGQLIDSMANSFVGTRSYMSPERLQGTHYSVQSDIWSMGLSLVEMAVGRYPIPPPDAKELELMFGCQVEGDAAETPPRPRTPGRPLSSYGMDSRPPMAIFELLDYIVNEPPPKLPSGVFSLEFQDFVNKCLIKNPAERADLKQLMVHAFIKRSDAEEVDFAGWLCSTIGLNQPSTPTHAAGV

[15] = target: Mitogen-activated protein kinase 14 (Homo sapiens) (UniProt Q16539); experiment: Inhibition of human p38-alpha assessed as residual activity at 0.1 uM relative to control
[16] = target: Serine/threonine-protein kinase pim-1 (Homo sapiens) (UniProt P11309); experiment: Inhibition of human PIM1 assessed as residual activity at 0.1 uM relative to control
[17] = target: Protein kinase C alpha type (Homo sapiens) (UniProt P17252); experiment: Inhibition of human PKCalpha assessed as residual activity at 1 uM relative to control
[18] = target: Serine/threonine-protein kinase PLK1 (Homo sapiens) (UniProt P53350); experiment: Inhibition of human PLK1 assessed as residual activity at 1 uM relative to control
Homo sapiens = species on record: Homo sapiens; experiment: Inhibition of human S6K assessed as residual activity at 0.1 uM relative to control
[19] = target: SRSF protein kinase 1 (Homo sapiens) (UniProt Q96SB4); experiment: Inhibition of human SRPK1 assessed as residual activity at 1 uM relative to control
[20] = target: High affinity nerve growth factor receptor (Homo sapiens, UniProt P04629); experiment: Inhibition of human TRKA assessed as residual activity at 0.1 uM relative to control
[21] = target: T1, Dual specificity protein kinase TTK (Homo sapiens) (UniProt P33981); experiment: Inhibition of human TTK assessed as residual activity at 1 uM relative to control
T1 sequence (whole entry): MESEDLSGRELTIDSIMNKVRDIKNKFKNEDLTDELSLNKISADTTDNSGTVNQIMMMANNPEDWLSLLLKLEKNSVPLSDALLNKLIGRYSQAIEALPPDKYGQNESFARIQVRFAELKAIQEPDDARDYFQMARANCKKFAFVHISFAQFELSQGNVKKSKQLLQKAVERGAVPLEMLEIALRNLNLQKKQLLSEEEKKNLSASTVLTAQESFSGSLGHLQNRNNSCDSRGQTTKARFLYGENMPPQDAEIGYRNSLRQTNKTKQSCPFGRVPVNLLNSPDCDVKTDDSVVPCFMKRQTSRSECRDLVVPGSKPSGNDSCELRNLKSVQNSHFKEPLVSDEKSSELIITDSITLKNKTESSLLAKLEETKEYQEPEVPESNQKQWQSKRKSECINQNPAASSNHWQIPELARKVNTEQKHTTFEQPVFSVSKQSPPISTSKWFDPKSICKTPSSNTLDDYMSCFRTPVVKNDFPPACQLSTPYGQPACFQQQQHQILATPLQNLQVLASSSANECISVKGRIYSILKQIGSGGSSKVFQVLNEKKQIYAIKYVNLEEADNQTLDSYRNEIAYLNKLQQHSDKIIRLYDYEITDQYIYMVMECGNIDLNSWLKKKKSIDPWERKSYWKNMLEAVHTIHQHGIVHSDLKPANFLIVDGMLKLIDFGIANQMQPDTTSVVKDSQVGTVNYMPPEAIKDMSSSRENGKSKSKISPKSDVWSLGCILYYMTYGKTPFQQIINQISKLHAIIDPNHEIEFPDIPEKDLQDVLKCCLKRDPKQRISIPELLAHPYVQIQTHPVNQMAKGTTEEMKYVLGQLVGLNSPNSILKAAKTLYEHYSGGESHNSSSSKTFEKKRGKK

[22] = target: Vascular endothelial growth factor receptor 1 (Homo sapiens) (UniProt P17948); experiment: Inhibition of human VEGFR1 assessed as residual activity at 0.1 uM relative to control
Sequence of Vascular endothelial growth factor receptor 1 (Homo sapiens) (P17948 whole entry): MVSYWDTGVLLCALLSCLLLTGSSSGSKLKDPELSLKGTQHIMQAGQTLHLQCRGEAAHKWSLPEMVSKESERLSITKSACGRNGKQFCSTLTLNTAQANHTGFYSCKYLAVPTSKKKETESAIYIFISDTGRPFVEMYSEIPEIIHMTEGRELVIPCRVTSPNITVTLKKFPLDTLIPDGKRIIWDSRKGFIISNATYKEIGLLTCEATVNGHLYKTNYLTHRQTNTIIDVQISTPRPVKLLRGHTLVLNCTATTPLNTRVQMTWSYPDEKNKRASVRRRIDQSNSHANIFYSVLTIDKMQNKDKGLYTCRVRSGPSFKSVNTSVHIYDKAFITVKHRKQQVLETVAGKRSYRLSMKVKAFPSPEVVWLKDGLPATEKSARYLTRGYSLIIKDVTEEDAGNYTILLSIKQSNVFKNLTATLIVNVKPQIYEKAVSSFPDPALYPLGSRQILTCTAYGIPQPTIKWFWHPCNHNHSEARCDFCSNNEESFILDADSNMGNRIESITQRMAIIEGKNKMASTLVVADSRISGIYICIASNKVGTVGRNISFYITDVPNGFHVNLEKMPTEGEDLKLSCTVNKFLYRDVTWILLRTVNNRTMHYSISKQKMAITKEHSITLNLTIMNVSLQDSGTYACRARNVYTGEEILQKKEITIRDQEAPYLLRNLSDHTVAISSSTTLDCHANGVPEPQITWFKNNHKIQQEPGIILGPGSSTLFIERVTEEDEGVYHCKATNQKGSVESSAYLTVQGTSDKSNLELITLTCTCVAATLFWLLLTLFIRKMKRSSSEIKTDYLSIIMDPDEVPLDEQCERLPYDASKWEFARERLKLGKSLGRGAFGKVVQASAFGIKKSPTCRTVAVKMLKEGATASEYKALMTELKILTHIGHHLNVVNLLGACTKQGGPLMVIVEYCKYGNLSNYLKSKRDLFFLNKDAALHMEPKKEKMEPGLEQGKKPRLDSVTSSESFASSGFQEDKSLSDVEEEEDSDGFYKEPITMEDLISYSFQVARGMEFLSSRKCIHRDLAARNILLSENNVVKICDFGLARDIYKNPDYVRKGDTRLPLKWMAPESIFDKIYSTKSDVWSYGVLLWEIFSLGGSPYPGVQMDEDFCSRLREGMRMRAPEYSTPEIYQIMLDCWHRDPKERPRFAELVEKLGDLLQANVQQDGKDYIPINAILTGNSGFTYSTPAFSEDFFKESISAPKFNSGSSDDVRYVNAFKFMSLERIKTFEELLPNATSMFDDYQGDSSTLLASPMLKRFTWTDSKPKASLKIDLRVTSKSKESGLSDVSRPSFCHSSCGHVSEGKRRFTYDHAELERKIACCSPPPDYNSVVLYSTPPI

Sequence of Myosin light chain kinase, smooth muscle (Homo sapiens) (Q15746 whole entry, the tested form may be a part): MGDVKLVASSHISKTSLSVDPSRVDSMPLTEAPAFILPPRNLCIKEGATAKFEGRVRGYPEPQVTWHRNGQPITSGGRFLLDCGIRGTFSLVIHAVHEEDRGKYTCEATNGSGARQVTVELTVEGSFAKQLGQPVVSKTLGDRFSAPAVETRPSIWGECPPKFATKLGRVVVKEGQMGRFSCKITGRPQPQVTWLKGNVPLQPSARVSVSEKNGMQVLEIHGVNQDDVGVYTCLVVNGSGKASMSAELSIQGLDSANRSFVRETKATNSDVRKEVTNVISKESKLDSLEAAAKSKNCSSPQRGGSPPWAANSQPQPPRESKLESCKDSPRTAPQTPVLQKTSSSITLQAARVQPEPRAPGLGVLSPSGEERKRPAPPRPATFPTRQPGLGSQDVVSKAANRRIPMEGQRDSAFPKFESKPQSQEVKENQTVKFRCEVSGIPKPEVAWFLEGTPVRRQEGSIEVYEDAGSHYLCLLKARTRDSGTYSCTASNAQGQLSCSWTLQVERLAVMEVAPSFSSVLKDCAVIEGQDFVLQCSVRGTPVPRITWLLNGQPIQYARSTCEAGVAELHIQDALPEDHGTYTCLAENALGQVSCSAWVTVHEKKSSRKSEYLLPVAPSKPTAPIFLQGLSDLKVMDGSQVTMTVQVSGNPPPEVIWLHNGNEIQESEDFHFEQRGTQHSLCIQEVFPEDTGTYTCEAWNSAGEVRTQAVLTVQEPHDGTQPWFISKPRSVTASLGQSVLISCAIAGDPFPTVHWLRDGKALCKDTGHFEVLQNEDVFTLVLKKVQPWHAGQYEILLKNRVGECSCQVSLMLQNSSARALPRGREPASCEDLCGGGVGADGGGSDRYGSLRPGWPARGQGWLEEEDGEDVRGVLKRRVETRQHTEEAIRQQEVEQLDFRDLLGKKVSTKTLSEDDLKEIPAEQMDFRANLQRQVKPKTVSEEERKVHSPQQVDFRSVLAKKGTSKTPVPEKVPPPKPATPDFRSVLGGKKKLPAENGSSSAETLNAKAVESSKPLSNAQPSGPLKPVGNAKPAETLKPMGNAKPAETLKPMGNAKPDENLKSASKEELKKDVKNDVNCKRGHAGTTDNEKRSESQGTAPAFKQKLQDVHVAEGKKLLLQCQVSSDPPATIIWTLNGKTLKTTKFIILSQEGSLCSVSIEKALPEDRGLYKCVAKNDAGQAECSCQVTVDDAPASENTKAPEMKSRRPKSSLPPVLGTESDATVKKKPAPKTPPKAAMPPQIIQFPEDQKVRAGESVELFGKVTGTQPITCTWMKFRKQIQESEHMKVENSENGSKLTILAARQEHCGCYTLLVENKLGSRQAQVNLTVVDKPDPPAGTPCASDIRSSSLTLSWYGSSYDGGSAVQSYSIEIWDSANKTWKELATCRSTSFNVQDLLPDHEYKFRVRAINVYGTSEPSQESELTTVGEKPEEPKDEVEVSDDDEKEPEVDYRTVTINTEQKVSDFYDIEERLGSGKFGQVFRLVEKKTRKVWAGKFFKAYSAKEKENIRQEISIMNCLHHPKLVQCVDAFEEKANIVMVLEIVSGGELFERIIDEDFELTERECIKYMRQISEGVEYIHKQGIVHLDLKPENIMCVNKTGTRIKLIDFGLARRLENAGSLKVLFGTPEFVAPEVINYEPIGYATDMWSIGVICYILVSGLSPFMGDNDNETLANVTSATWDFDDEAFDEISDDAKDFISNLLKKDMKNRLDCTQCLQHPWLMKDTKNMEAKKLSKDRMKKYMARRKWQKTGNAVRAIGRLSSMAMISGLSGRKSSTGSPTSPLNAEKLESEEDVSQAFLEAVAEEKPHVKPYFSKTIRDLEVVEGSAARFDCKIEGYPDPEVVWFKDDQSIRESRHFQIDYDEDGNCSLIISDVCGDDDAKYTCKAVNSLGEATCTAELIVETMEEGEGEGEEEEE

SMILES	Activity [1]	Activity [2]	Activity [3]	Activity [4]	Activity [5]	Activity [6]	Activity [7]	Activity [8]	Activity [9]	Activity [10]	Activity [11]	Activity [12]	Activity [13]	Activity [14]	Activity [15]	Activity [16]	Activity [17]	Activity [18]	Activity (Homo sapiens)	Activity [19]	further results
CN(C)S(=O)(=O)c1ccc2c(c1)/C(=C/c1cn(C)c3ccc(O)cc13)C(=O)N2	91%	105%	105%	103%	43%	95%	103%	25%	92%	99%	96%	95%	51%	98%	97%	102%	103%	91%	87%	94%	Activity [20]: 10%; Activity [21]: 96%; Activity [22]: 100%
Cn1cc(/C=C2\C(=O)Nc3ccc(S(N)(=O)=O)cc32)c2ccccc21	97%	92%	97%	83%	59%	111%	90%	25%	5%	104%	103%	107%	12%	59%	107%	105%	94%	91%	90%	101%	Activity [20]: 3%; Activity [21]: 85%; Activity [22]: 82%

Continued, in another order:

Activity [1]	Activity [2]	Activity [3]	Activity [4]	Activity [5]	Activity [6]	Activity [7]	Activity [8]	Activity [9]	Activity [10]	Activity [11]	Activity [12]	Activity [13]	Activity [14]	Activity [15]	Activity [16]	Activity [17]	Activity [18]	Activity (Homo sapiens)	Activity [19]	SMILES	further results
94%	92%	96%	94%	79%	117%	97%	19%	39%	93%	81%	100%	38%	71%	106%	96%	102%	93%	92%	99%	COc1ccc2c(c1)c(/C=C1\C(=O)Nc3ccc(S(N)(=O)=O)cc31)cn2C	Activity [20]: 3%; Activity [21]: 96%; Activity [22]: 94%
92%	93%	98%	104%	74%	97%	80%	50%	75%	90%	102%	60%	55%	93%	102%	94%	103%	87%	96%	101%	CNS(=O)(=O)c1ccc2c(c1)/C(=C/c1cn(C)c3ccc(OC)cc13)C(=O)N2	Activity [20]: 4%; Activity [21]: 86%; Activity [22]: 91%
94%	115%	101%	101%	95%	100%	94%	31%	12%	103%	84%	97%	25%	72%	102%	103%	87%	95%	88%	93%	COc1ccc2[nH]cc(/C=C3\C(=O)Nc4ccc(S(N)(=O)=O)cc43)c2c1	Activity [20]: 6%; Activity [21]: 80%; Activity [22]: 96%
94%	101%	93%	98%	85%	89%	94%	30%	99%	98%	85%	79%	37%	97%	95%	104%	95%	93%	87%	95%	COc1ccc2c(c1)c(/C=C1\C(=O)Nc3ccc(S(=O)(=O)N(C)C)cc31)cn2C	Activity [20]: 18%; Activity [21]: 106%; Activity [22]: 96%
